Results on 16 molecules are retold here after US20250066322A1, “SUBSTITUTED HETEROCYCLIC COMPOUNDS” (BRISTOL-MYERS SQUIBB COMPANY, priority 2021, published 2025).

Structures are written as SMILES.

The subject of one assay is IFNα-Induced STAT Phosphorylation (pSTAT5). The assay can be described thus: IFNα-Induced STAT Phosphorylation in Human Whole Blood. It counts as cell-based. The following applies: 1 h incubation with compound, then 1000 U/mL recombinant human IFNα A/D for 15 min, pSTAT5 in CD3 positive population, read-out: Human Whole blood IFNa pSTAT5 IC50. The procedure: IFNα-Induced STAT Phosphorylation in Human Whole Blood
After an hour long incubation with compound, human whole blood (drawn with ACD-A as anticoagulant) was stimulated with 1000 U/mL recombinant human IFNα A/D (R&D Systems 11200-2) for 15 min. The stimulation was stopped by adding Fix/Lyse buffer (BD 558049). Cells were stained with a CD3 FITC antibody (BD 555916), washed, and permeabilized on ice using Perm III buffer (BD 558050). Cells were then stained with an Alexa-Fluor 647 pSTAT5 (pY694) antibody (BD 612599) for 60 min prior to analysis on the iQue Plus. The amount of pSTAT5 expression was quantitated by median fluorescence intensity after gating on the CD3 positive population.
As for `[2H]C([2H])([2H])NC(=O)c1nnc(NC(=O)C2CC2C)cc1Nc1ncccc1S(=O)(=O)C(F)F` (single isomer, unassigned) [Example 13a, 4-((3-((difluoromethyl)sulfonyl)pyridin-2-yl)amino)-N-(methyl-d3)-6-(2-methylcyclopropane-1-carboxamido)pyridazine-3-carboxamide], the IC50 (as a rule, the concentration at which inhibition is half-maximal) turned out to be 0.11 µM.

Turning to `CCC(=O)c1cnc(NC(=O)C2CC2C)cc1Nc1ncccc1S(=O)(=O)C(F)F` (single isomer, unassigned) [Example 21a, N-(4-((3-((difluoromethyl)sulfonyl)pyridin-2-yl)amino)-5-propionylpyridin-2-yl)-2-methylcyclopropane-1-carboxamide], the IC50 stood at 1.4 µM.

Consider `CCC(=O)c1cnc(NC(=O)C2CC2C)cc1Nc1ncccc1S(=O)(=O)C(F)F` (single isomer, unassigned) [Example 21b, N-(4-((3-((difluoromethyl)sulfonyl)pyridin-2-yl)amino)-5-propionylpyridin-2-yl)-2-methylcyclopropane-1-carboxamide], for which the IC50 is 0.05 µM.

For the molecule `[2H]C([2H])([2H])NC(=O)c1nnc(NC(=O)C2CC2C)cc1Nc1ncccc1S(=O)(=O)C(F)F` (single isomer, unassigned) [Example 13b, 4-((3-((difluoromethyl)sulfonyl)pyridin-2-yl)amino)-N-(methyl-d3)-6-(2-methylcyclopropane-1-carboxamido)pyridazine-3-carboxamide], the IC50 was 0.01 µM.

As to `CCC(=O)c1cnc(NC(=O)[C@@H]2CC23CC3)cc1Nc1ncccc1S(=O)(=O)C(F)F` [Example 17], the IC50 was 0.96 µM.

The same assay, now with this note: Homo sapiens, 1 h incubation with compound, then 1000 U/mL recombinant human IFNα A/D for 15 min, pSTAT5 in CD3 positive population, read-out: Human Whole blood IFNa pSTAT5 IC50.
As for `[2H]C([2H])([2H])NC(=O)c1nnc(NC(=O)C2CC2)cc1Nc1ncccc1S(=O)(=O)C(F)F` [Example 4, 6-(cyclopropanecarboxamido)-4-((3-((difluoromethyl)sulfonyl)-pyridin-2-yl)amino)-N-(methyl-d3)pyridazine-3-carboxamide], the IC50 was determined as 0.03 µM.

As to `[2H]C([2H])([2H])NC(=O)c1nnc(NC(=O)N(C)C)cc1Nc1ncccc1S(=O)(=O)C(F)F` [Example 6, 4-((3-((difluoromethyl)sulfonyl)pyridin-2-yl)amino)-6-(3,3-dimethylureido)-N-(methyl-d3)pyridazine-3-carboxamide], the IC50 is 0.21 µM.

As to `[2H]C([2H])([2H])NC(=O)c1nnc(NC(=O)OC)cc1Nc1ncccc1S(=O)(=O)C(F)F` [Example 5, methyl (5-((3-((difluoromethyl)-sulfonyl)pyridin-2-yl)amino)-6-((methyl-d3)carbamoyl)-pyridazin-3-yl)carbamate], the IC50 worked out at 0.25 µM.

For the molecule `CCC(=O)c1cnc(Nc2cccc(F)n2)cc1Nc1ncccc1S(=O)(=O)C(F)F` [Example 22, 1-(4-((3-((difluoromethyl)sulfonyl)pyridin-2-yl)amino)-6-((6-fluoropyridin-2-yl)amino)pyridin-3-yl)propan-1-one], the IC50 is 0.22 µM.

For `CCC(=O)c1cnc(NC(=O)[C@H]2C[C@@H]2C)cc1Nc1ncccc1S(=O)(=O)C(F)F` [Example 18, (1S,2S)-N-(4-((3-((difluoromethyl)sulfonyl)pyridin-2-yl)amino)-5-propionylpyridin-2-yl)-2-methylcyclopropane-1-carboxamide], the IC50 was 0.85 µM.

For the molecule `CCC(=O)c1cnc(NC(=O)C2CC2)cc1Nc1ncccc1S(=O)(=O)C1CC1` [Example 3, N-(4-((3-(cyclopropylsulfonyl)pyridin-2-yl)amino)-5-propionylpyridin-2-yl)cyclopropanecarboxamide], the IC50 was determined as 0.59 µM.

As to `CCC(=O)c1cnc(NC(=O)N(C)C)cc1Nc1ncccc1S(=O)(=O)C(F)F` [Example 16, 3-(4-((3-((difluoromethyl)sulfonyl)pyridin-2-yl)amino)-5-propionylpyridin-2-yl)-1,1-dimethylurea], the IC50 was found to be 0.98 µM.

For `[2H]C([2H])([2H])NC(=O)c1nnc(NC(=O)OC)cc1Nc1ncccc1S(=O)(=O)C1CC1` [Example 2, methyl (5-((3-(cyclopropylsulfonyl)pyridin-2-yl)amino)-6-((methyl-d3)carbamoyl)pyridazin-3-yl)carbamate], the IC50 came out at 0.67 µM.

Consider `[2H]C([2H])([2H])NC(=O)c1nnc(NC(=O)C2CC2)cc1Nc1ncccc1S(=O)(=O)C1CC1` [Example 1, 6-(cyclopropanecarboxamido)-4-((3-(cyclopropylsulfonyl)pyridin-2-yl)amino)-N-(methyl-d3) pyridazine-3-carboxamide], for which the 50% inhibitory concentration (IC50) is 0.07 µM.

For the molecule `CCC(=O)c1cnc(NC(=O)C2CC2)cc1Nc1ncccc1S(=O)(=O)C(F)F` [Example 15, N-(4-((3-((difluoromethyl)sulfonyl)pyridin-2-yl)amino)-5-propionylpyridin-2-yl)cyclopropanecarboxamide], the IC50 is 0.15 µM.

In the case of `CCC(=O)c1cnc(NC(=O)[C@H]2C[C@@H]2F)cc1Nc1ncccc1S(=O)(=O)C(F)F` [Example 20, (1R,2S)-N-(4-((3-((difluoromethyl)sulfonyl)pyridin-2-yl)amino)-5-propionylpyridin-2-yl)-2-fluorocyclopropane-1-carboxamide], the IC50 is 0.46 µM.
